# From ChEMBL document CHEMBL5728485, “Biaryloxy derivatives as TTX-S blockers” (2021)
# Biological target: Sodium channel protein type 9 subunit alpha (Homo sapiens, UniProt Q15858)
# Assay: EFS-FRET Assay: This screen is used to determine the effects of compounds on human Nav1.7 channels, utilizing electrical field stimulation (EFS) system in 96-well plate format on FDSS (Hamamatsu Photonics) platform. The changes of membrane potential are monitored with FRET dye pair, DiSBAC2(3) and PTS 18.
# Sodium channel protein type 9 subunit alpha, sequence (Q15858 whole entry): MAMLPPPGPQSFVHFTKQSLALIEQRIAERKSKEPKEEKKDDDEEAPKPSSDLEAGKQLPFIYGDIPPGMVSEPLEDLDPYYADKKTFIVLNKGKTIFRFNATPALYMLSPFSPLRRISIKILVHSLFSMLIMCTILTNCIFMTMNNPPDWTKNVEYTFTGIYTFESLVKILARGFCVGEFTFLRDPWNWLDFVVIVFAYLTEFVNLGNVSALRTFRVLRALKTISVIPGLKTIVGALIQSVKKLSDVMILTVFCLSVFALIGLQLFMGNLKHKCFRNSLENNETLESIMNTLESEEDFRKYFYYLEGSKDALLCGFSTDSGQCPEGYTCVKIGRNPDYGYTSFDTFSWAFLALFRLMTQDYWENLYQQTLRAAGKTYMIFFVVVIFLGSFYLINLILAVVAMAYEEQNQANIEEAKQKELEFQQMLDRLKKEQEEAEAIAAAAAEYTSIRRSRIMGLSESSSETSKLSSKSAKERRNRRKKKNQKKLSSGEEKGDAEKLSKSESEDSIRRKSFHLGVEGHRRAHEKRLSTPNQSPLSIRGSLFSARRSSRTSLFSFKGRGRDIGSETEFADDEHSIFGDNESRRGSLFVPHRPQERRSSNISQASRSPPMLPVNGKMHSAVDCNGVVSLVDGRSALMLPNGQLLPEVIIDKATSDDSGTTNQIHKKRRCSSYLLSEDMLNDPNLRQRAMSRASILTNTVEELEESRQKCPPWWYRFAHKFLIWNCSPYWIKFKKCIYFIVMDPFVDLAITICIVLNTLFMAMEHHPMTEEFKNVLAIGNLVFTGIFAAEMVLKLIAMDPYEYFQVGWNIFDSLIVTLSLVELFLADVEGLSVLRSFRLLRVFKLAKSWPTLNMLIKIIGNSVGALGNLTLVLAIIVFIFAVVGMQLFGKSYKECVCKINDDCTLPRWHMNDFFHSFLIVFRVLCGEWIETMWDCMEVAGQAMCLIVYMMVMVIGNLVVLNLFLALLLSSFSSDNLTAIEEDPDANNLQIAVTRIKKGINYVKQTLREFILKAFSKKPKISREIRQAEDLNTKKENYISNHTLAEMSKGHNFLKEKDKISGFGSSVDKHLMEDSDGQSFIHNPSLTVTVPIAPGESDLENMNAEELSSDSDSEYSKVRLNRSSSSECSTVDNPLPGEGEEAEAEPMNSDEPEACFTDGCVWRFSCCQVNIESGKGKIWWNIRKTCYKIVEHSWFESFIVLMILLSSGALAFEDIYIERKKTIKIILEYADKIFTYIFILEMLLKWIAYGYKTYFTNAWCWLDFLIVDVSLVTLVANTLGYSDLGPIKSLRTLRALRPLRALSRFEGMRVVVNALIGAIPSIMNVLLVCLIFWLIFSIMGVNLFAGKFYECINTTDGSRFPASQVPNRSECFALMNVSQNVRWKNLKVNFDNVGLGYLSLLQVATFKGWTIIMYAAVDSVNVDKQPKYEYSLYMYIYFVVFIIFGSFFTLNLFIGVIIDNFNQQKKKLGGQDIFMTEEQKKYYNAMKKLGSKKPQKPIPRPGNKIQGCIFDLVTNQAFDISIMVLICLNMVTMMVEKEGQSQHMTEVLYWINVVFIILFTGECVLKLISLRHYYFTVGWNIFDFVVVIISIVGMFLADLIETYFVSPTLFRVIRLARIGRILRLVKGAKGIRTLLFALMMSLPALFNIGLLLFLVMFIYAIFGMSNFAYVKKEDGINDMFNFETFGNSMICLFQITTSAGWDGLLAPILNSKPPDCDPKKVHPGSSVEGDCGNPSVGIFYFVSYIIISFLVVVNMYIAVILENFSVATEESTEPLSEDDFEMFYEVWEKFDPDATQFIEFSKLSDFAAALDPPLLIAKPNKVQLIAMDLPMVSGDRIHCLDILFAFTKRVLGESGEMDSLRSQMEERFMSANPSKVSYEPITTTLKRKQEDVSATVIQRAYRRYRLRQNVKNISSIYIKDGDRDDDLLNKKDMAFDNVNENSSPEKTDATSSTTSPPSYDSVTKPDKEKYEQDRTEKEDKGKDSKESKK
row,IC50,SMILES
1,< 500 nM,CS(=O)(=O)NC(=O)c1ccc(COc2cc(F)cc(-c3cc(OCC4CC4)cc(C(=O)N4CCOCC4)c3)c2)c(F)c1
2,< 500 nM,CS(=O)(=O)NC(=O)c1ccc(COc2cc(F)cc(-c3cncc(OCC4CC4)n3)c2)cc1
3,< 500 nM,Cc1cc(OCC2CC2)ncc1-c1cccc(OCc2ccc(C(=O)NS(C)(=O)=O)cc2)c1
4,< 500 nM,CN(C)C(=O)c1cc(OCC2CC2)cc(-c2cc(F)cc(OCc3ccc(C(=O)NS(C)(=O)=O)cc3F)c2)c1
5,< 500 nM,CS(=O)(=O)NC(=O)c1ccc(COc2cccc(-c3cc(OCC4CC4)ncn3)c2)cc1
6,< 500 nM,Cn1cc(-c2cc(OCc3ccc(C(=O)NS(C)(=O)=O)cc3)cc(-c3ccc(OCC4CC4)nc3)c2)cn1
